Experimental data from the supplement of paper PMC11451515.

Test system: SEM cells
Experiment: cell viability relative to DMSO control; higher = less cytotoxic
Conditions: 48 h
Method in brief: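 Three leukemia lines were tested: NOMO1 and SEM at 500 cells/well and P12-Ichikawa at 1000 cells/well. Each was adapted for at least four passages in each medium and seeded in 5 μl in 1536-well plates, and library compounds in DMSO were pin-dosed from 47 μM to 0.79 nM in 11 threefold steps. After 48 h at 37°C, CellTiter-Glo One luminescence was read. Viability is a percentage relative to DMSO wells on each plate, with cell-free wells as background.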

[1] = HPLM + 10% dialyzed FBS, 0.000781 µM
[2] = HPLM + 10% dialyzed FBS, 0.00234 µM
[3] = HPLM + 10% dialyzed FBS, 0.00702 µM
[4] = HPLM + 10% dialyzed FBS, 0.0211 µM
[5] = HPLM + 10% dialyzed FBS, 0.0632 µM
[6] = HPLM + 10% dialyzed FBS, 0.19 µM
[7] = HPLM + 10% dialyzed FBS, 0.569 µM
[8] = HPLM + 10% dialyzed FBS, 1.71 µM
[9] = HPLM + 10% dialyzed FBS, 5.12 µM
[10] = HPLM + 10% dialyzed FBS, 15.4 µM
[11] = HPLM + 10% dialyzed FBS, 46.1 µM
[12] = RPMI 5 mM glucose + 10% FBS, 0.000781 µM
[13] = RPMI 5 mM glucose + 10% FBS, 0.00234 µM
[14] = RPMI 5 mM glucose + 10% FBS, 0.00702 µM
[15] = RPMI 5 mM glucose + 10% FBS, 0.0211 µM
[16] = RPMI 5 mM glucose + 10% FBS, 0.0632 µM
[17] = RPMI 5 mM glucose + 10% FBS, 0.19 µM
[18] = RPMI 5 mM glucose + 10% FBS, 0.569 µM
[19] = RPMI 5 mM glucose + 10% FBS, 1.71 µM
[20] = RPMI 5 mM glucose + 10% FBS, 5.12 µM
[21] = RPMI 5 mM glucose + 10% FBS, 15.4 µM
[22] = RPMI 5 mM glucose + 10% FBS, 46.1 µM
[23] = RPMI 5 mM glucose + 10% dialyzed FBS, 0.000781 µM
[24] = RPMI 5 mM glucose + 10% dialyzed FBS, 0.00234 µM
[25] = RPMI 5 mM glucose + 10% dialyzed FBS, 0.00702 µM
[26] = RPMI 5 mM glucose + 10% dialyzed FBS, 0.0211 µM
[27] = RPMI 5 mM glucose + 10% dialyzed FBS, 0.0632 µM
[28] = RPMI 5 mM glucose + 10% dialyzed FBS, 0.19 µM
[29] = RPMI 5 mM glucose + 10% dialyzed FBS, 0.569 µM
[30] = RPMI 5 mM glucose + 10% dialyzed FBS, 1.71 µM
[31] = RPMI 5 mM glucose + 10% dialyzed FBS, 5.12 µM
[32] = RPMI 5 mM glucose + 10% dialyzed FBS, 15.4 µM
[33] = RPMI 5 mM glucose + 10% dialyzed FBS, 46.1 µM

SMILES	cell viability [1] [%]	cell viability [2] [%]	cell viability [3] [%]	cell viability [4] [%]	cell viability [5] [%]	cell viability [6] [%]	cell viability [7] [%]	cell viability [8] [%]	cell viability [9] [%]	cell viability [10] [%]	cell viability [11] [%]	cell viability [12] [%]	cell viability [13] [%]	cell viability [14] [%]	cell viability [15] [%]	cell viability [16] [%]	cell viability [17] [%]	cell viability [18] [%]	cell viability [19] [%]	cell viability [20] [%]	cell viability [21] [%]	cell viability [22] [%]	cell viability [23] [%]	cell viability [24] [%]	cell viability [25] [%]	cell viability [26] [%]	cell viability [27] [%]	cell viability [28] [%]	cell viability [29] [%]	cell viability [30] [%]	cell viability [31] [%]	cell viability [32] [%]	cell viability [33] [%]
CN(C)[S+](=O)([O-])c1ccc2c(c1)C(=Cc1cc3c([nH]1)CCCC3)C(=O)N2	112	115	112	114	128	129	130	116	114	85.7	111	90.5	98.6	109	103	118	113	118	113	112	78.5	94.7	116	115	127	120	120	108	132	123	113	72.9	116
COc1ccc(-c2ccc3ncc4c(c3c2)n(-c2ccc(N3CCNCC3)c(C(F)(F)F)c2)c(=O)n4C)cn1	72.5	65.5	54.5	44.2	37.2	31.8	31.2	4.63	4.31	3.49	2.31	95.8	77.7	60.3	55.9	45.1	23.6	21.5	5.49	5.48	3.64	2.49	70	73.5	54.5	46.5	46	25.1	18.4	5.55	5.1	3.87	2.59
C[C@H](NC(=O)c1sccc1OCc1ccc(Cl)cc1)c1ccccc1	98.8	94.4	82.9	88.2	94.8	83.4	91.1	92.5	69.5	80.1	51	96.9	90.9	92.5	106	112	95.6	85.1	112	73.3	115	20.4	107	97.3	94.7	94.1	101	101	97.9	101	70.1	99.6	59.3
CC(C)c1nc(CN(C)C(=O)N[C@H](C(=O)N[C@@H](Cc2ccccc2)C[C@H](O)[C@H](Cc2ccccc2)NC(=O)OCc2cncs2)C(C)C)cs1	84.8	90.5	101	87.5	96.2	91.6	85	85.1	81.5	62.6	74.4	94.9	103	110	103	90.7	89.7	84.8	88.8	87.3	80.1	87.5	104	113	98.4	85	106	86.1	94.8	105	92.4	88.1	99.8
C[C@H]1COC2=C3N1\C=C(C(O)=O)/C(=O)C3=CC(=C2N4CCN(C)CC4)F	102	117	117	108	106	110	92.9	68.7	68.2	65.4	52.7	105	115	102	115	90.6	81.4	94.7	73.4	63.6	58.6	31.9	90	109	112	99.1	90.2	96.4	88.7	64.1	76.9	70.4	69.4
O=C(O)CCC1CCC(c2cc(F)ccc2F)([S+](=O)([O-])c2ccc(Cl)cc2)CC1 (stereo not given)	105	93.5	110	114	115	115	109	117	119	125	116	104	110	117	126	112	114	114	104	110	113	81.6	103	105	115	122	122	128	109	116	123	111	106
CCN(CC)CCOc1ccc(/C(=C(\Cl)c2ccccc2)c2ccccc2)cc1	111	118	128	114	118	116	134	125	129	112	101	90	94.7	115	116	118	128	124	116	108	116	91.6	104	124	125	127	142	144	127	126	123	126	118
C[C@@H]1COCCN1c1cc(C2([S@+](C)(=N)[O-])CC2)nc(-c2ccnc3[nH]ccc23)n1	90.4	100	98.5	77.8	102	93.4	95.3	40.6	21.5	21.5	14												81.8	96	114	74.4	130	102	66.3	42.4	24.8	20.6	10.7
CCOC(=O)c1ccc(OC(=O)CCCCCNC(=N)N)cc1	111	91.3	117	120	123	131	132	127	120	57.9	39.8	116	108	134	109	130	140	141	105	45.9	31.8	27.2	99.1	86.9	142	132	109	117	123	125	95.7	37.8	26.4
CCc1ccc(CCOc2ccc(CC3SC(=O)NC3=O)cc2)nc1 (stereo not given)	120	115	112	113	124	108	42.4	117	122	119	89.6	93.5	86.9	88.1	85.9	85.6	83.4	61	94.9	87	80	80.7	112	115	111	143	129	116	68.6	137	122	122	110
FC1=CC=C(C=C1)N2/C=C\C=C(C(=O)NC3=CC=C(OC4=C5C=C[NH]C5=NC=C4)C(=C3)F)/C2=O	92.6	101	104	112	106	109	115	107	99.9	77.3	75.4	72.6	69.9	65.1	76	67.1	68.1	73	71.6	60.5	46.9	40	101	96.9	98.7	111	119	111	121	102	95.7	74.8	55.4
CNC(=O)c1ccc2cc(C3(O)CCn4cncc43)ccc2c1 (stereo not given)	128	119	103	125	125	113	108	107	106	123	107																						
CC[S+](=O)([O-])c1cccc(-c2cc(C(=O)NC3CCN(C)CC3)c(C)c3[nH]c4ncc(C)cc4c23)c1	109	103	130	110	124	101	52.3	38.6	30.2	18.8	8.97	114	120	140	120	138	83.2	46.6	27.7	20.6	12.9	5.92	99.2	92.5	135	127	118	82.6	46	31.9	23.8	20.6	6.33
Cc1nn(Cc2ccccc2Cl)c(C)c1CN(C)CC(O)COc1ccc(Cl)cc1 (stereo not given)	95.7	98.1	103	119	100	102	109	104	105	41.8	46.9	100	109	93	112	110	116	107	114	105	41.1	41.4	109	91.8	107	103	113	89.9	97.2	101	95.8	39.2	38.3
COc1ccccc1OCC(O)COC(N)=O (stereo not given)	84	102	104	110	118	114	109	106	119	111	89.1	94.6	110	85.6	110	104	95.8	112	106	120	97.6	99.4	108	109	103	123	106	121	136	93.8	126	118	112
CN[C@@H]1[C@@H](O)[C@@H](O[C@@H]2[C@@H](O)[C@H](O[C@H]3O[C@H](CN)[C@@H](O)[C@H](O)[C@H]3O)[C@@H](N)C[C@H]2NC(=O)[C@@H](O)CN)OC[C@]1(C)O	116	100	108	107	91.9	105	105	98.9	98	102	97.1	118	116	125	129	129	111	123	111	111	120	124	121	124	118	125	136	115	135	106	127	129	101
